We go through one substance from patent US7435790B2, “Dihydroxypropyl cysteine peptide and agent containing this peptide” (Helmholtz-Zentrum fuer Infektionsforschung GmbH, priority 1996, dated 2008).

Assay [1] has as its system interferon-treated murine peritoneal macrophages. As to the kind of experiment: Nitrite/nitrate (nitrogen monoxide) release on stimulation of interferon-treated murine peritoneal macrophages. To be noted: mouse system. The assay is classed as cell-based. How it is done: The lipopeptide is prepared from Mycoplasma fermentans (for example PG18). The isolation of the lipopeptide from mycoplasma is carried out by the following known separation procedure (Mühlradt et al. in Biochemistry, 35 (1996) 7781-7786). • (i) Delipidation of the mycoplasma using chloroform/methanol. • (ii) Extraction of the delipidated mycoplasma using hot 25 mM octyl glucoside. • (iii) Dialysis of the detergent extract. • (iv) Concentration of the extract by lyophilisation. • (v) Reversed-phase chromatography on a C8 column using a water/2-propanol gradient. Detection of the biological activity is effected by measuring nitrite and nitrate as the secondary products of nitrogen monoxide, which is liberated on stimulation of interferon-treated murine peritoneal macrophages.
Immun., 59 (1991) 3962-3968 and Feng & Lo in Infect. Immun., 62 (1994) 3916-3921. Its half-maximum effective concentration (Max/2) is 20 pg/ml or 10^−11 M in the mouse system. That effective concentration is lower by a factor of from 10^2 to 10^3 than the corresponding known concentrations of similar natural or synthetic lipopeptides.

The test system of another assay is macrophages of mice. Particulars: cited from earlier work.
The subject of a further assay is macrophages of humans. Particulars: cited from earlier work.

Consider “Dhc-GNN DES NIS FKE K: S-(2,3-dihydroxypropyl)-cysteine peptide from Mycoplasma fermentans with two ester-bonded long-chain fatty acids (C16:0 and C18:0/C18:1)”, for which the “half-maximum effective concentration (Max/2)” value in assay [1] is 20 pg/mL. The EC50 in assay [1] (read-out: half-maximum effective concentration (Max/2)) is 0.01 nM. In addition, the “release of cytokines and prostaglandins from macrophages” value in the assay with macrophages of mice is “stimulating macrophages of mice and humans to release cytokines and prostaglandins”; in the assay with macrophages of humans, “stimulating macrophages of mice and humans to release cytokines and prostaglandins”.
